Test results published in patent publication US11564928B1, “Cannabinoid receptor type 2 (CB2) modulators and uses thereof” (Teon Therapeutics, Inc., priority 2020, dated 2023).
Like-named read-outs stand apart in the source and are kept apart here.

Legend:
human CB2 receptor [1] = target: T1, human CB2 receptor (Homo sapiens (Human), UniProt P34972); experiment: CB2 receptor cAMP assay (DiscoverX HitHunter cAMP XS+); assay type: cell-based; details: for Emax: CHO-K1, read-out: Max Stimulation %
T1 sequence (P34972 whole entry): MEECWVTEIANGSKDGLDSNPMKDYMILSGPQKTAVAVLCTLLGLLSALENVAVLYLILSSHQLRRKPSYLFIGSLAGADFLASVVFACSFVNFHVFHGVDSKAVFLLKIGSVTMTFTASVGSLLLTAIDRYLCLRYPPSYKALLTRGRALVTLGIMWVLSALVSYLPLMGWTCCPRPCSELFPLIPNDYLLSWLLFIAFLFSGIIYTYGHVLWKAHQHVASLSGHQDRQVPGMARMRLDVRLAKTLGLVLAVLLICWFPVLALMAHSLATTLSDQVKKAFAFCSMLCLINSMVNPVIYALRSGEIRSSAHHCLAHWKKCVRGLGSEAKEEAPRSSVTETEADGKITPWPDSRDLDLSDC
Method: cAMP Hunter CHO-K-1 cell lines expressing human CB2 receptor (Eurofins) were expanded from freezer stocks according to standard procedures. Cells were seeded in a total volume of 20 μL into white walled, 384-well microplates and incubated at 37° C. for the appropriate time prior to testing. cAMP modulation in agonist, inverse agonist or antagonist format was determined using the DiscoverX HitHunter cAMP XS+ assay (Eurofins). For agonist determination, cells were incubated with sample in the presence of EC80 forskolin to induce response. Media was aspirated from cells and replaced with 15 μL 2:1 HBSS/10 mM Hepes: cAMP XS+Ab reagent. Intermediate dilution of sample stocks was performed to generate 4× sample in assay buffer containing 4× EC80 forskolin. 5 μL of 4× sample was added to cells and incubated at 37° C. or room temperature for 30 or 60 minutes. Final assay vehicle concentration was 1%. For inverse agonist determination, cells were preincubated with sample in the presence of EC20 forskolin. Media was aspirated from cells and replaced with 15 μL, 2:1 HBSS/10 mM Hepes: cAMP XS+Ab reagent. Intermediate dilution of sample stocks was performed to generate 4× sample in assay buffer containing 4× EC20 forskolin. 5 μL of 4× sample was added to cells and incubated at 37° C. or room temperature for 30 or 60 minutes. Final assay vehicle concentration was 1%. For antagonist determination, cells were pre-incubated with sample followed by agonist challenge at the EC80 concentration. Media was aspirated from cells and replaced with 10 μL 1:1 HBSS/Hepes: cAMP XS+Ab reagent. 5 μL of 4× compound was added to the cells and incubated at 37° C. or room temperature for 30 minutes. 5 μL of 4× EC80 agonist was added to cells and incubated at 37° C. or room temperature for 30 or 60 minutes. EC80 forksolin was included. After appropriate compound incubation, assay signal was generated through incubation with 20 μL cAMP XS+ED/CL lysis cocktail for one hour followed by incubation with 20 μL, cAMP XS+EA reagent for three hours at room temperature. Microplates were read following signal generation with a PerkinElmer Envision instrument for chemiluminescent signal detection. Compound activity was analyzed using CBIS data analysis suite (ChemInnovation, CA). For agonist mode assay, percentage activity is calculated using the following formula: % Activity=100%×(1−(mean RLU of test sample−mean RLU of MAX control)/(mean RLU of vehicle control−mean RLU of MAX control)). For inverse agonist mode assay, percentage activity is calculated using the following formula: % Inverse Agonist Activity=100%×((mean RLU of test sample−mean RLU of EC20 forskolin)/(mean RLU of forskolin positive control−mean RLU of EC20 control)). For antagonist mode assay, percentage inhibition is calculated using the following formula: % Inhibition=100%×(mean RLU of test sample−mean RLU of EC80 control)/(mean RLU of forskolin positive control−mean RLU of EC80 control). Data are analyzed and IC50 is calculated using GraphPad Prism 5 and the model “log(inhibitor) vs. response—Variable slope”.

human CB2 receptor [2] = target: T1, human CB2 receptor; experiment: CB2 receptor binding assay ([3H]CP-55,940 displacement, HEK-293 membranes)
human recombinant CB1R = human recombinant CB1R (Homo sapiens (Human), UniProt P21554); experiment: CB1 receptor binding assay ([3H]CP-55,940 displacement, HEK-293 membranes)
Chain of human recombinant CB1R (P21554 whole entry): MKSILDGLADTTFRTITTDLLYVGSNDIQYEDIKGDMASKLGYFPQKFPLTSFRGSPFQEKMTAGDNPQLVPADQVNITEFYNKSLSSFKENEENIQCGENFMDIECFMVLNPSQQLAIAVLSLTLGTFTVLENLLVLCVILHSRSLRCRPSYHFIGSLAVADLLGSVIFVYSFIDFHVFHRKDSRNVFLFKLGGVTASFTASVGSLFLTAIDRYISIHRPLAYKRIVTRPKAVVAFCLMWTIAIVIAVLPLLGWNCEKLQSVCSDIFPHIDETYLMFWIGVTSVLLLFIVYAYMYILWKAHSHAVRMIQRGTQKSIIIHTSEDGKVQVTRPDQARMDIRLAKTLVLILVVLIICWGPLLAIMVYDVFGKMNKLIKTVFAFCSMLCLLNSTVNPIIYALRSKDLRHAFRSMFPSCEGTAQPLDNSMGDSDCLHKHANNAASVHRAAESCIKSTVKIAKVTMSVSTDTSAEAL
Summary of the method: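 Displacement of [3H]CP-55,940 was measured on human CB1R- or CB2R-transfected HEK-293 membranes after 120 min at 37 °C, in duplicate, with filtration and scintillation counting. For CB2R, incubation used Tris-HCl 50 mM, MgCl2 5 mM, CaCl2 1 mM, BSA 0.2%, pH 7.4. Ki values were derived from variable-slope IC50 fits using Cheng–Prusoff.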

[3] = membranes of HEK-293 cells with human recombinant CB2R, [3H]CP-55,940, read-out: CB2 IC50
[4] = membranes of HEK-293 cells with human recombinant CB1R, [3H]CP-55,940, read-out: CB1 IC50
[5] = cAMP Hunter CHO-K-1 cells expressing human CB2 receptor, read-out: cAMP IC50
[6] = membranes of HEK-293 cells with human recombinant CB2R, [3H]CP-55,940, class symbols, read-out: CB2 IC50
[7] = membranes of HEK-293 cells with human recombinant CB1R, [3H]CP-55,940, class symbols, read-out: CB1 IC50

| SMILES | IC50 (human CB2 receptor [1]) [nM] | Emax (human CB2 receptor [1]) [%] | IC50 (human recombinant CB1R; [4]) [nM] | IC50 (human CB2 receptor [2]; [6]) [nM] | IC50 (human recombinant CB1R; [7]) [nM] | further results |
| --- | --- | --- | --- | --- | --- | --- |
| CC1CCC(NC(=O)c2c(O)c3cc(-c4ccc(F)cc4)cnc3n(CCN3CCOCC3)c2=O)CC1 (centres unmarked) [Compound 5, 6-(4-fluorophenyl)-4-hydroxy-N-(4-methylcyclohexyl)-1-(2-morpholinoethyl)-2-oxo-1,2-dihydro-1,8-naphthyridine-3-carboxamide] | 70 | 75 | 3870 | – | – | IC50 (human CB2 receptor [2]; [3]): 6.5 nM |
| O=C(NC1CC2(CCC2)C1)c1c(O)c2cc(-c3ccc(F)cc3)cnc2n(CCN2CCOCC2)c1=O [Compound 6, 6-(4-fluorophenyl)-4-hydroxy-1-(2-morpholinoethyl)-2-oxo-N-(spiro[3.3]heptan-2-yl)-1,2-dihydro-1,8-naphthyridine-3-carboxamide] | – | – | > 10000 | – | – | IC50 (human CB2 receptor [1]; [5]): > 1000 nM; IC50 (human CB2 receptor [2]; [3]): 6.1 nM |
| O=C(NC1CCC(F)(F)CC1)c1c(O)c2cc(-c3ccc(F)cc3)cnc2n(CCN2CCOCC2)c1=O [Compound 7, N-(4,4-difluorocyclohexyl)-6-(4-fluorophenyl)-4-hydroxy-1-(2-morpholinoethyl)-2-oxo-1,2-dihydro-1,8-naphthyridine-3-carboxamide] | – | – | – | > 1000 | > 1000 | IC50 (human CB2 receptor [1]; [5]): > 1000 nM |
| O=C(NC12CC(C1)C2)c1c(O)c2cc(-c3ccc(F)cc3)cnc2n(CCN2CCOCC2)c1=O [Compound 8, N-(bicyclo[1.1.1]pentan-1-yl)-6-(4-fluorophenyl)-4-hydroxy-1-(2-morpholinoethyl)-2-oxo-1,2-dihydro-1,8-naphthyridine-3-carboxamide] | 40 | 32 | > 10000 | – | – | IC50 (human CB2 receptor [2]; [3]): 20 nM |
| CC(NC(=O)c1c(O)c2cc(-c3ccc(F)cc3)cnc2n(CCN2CCOCC2)c1=O)c1ccc(F)cc1 (centres unmarked) [Compound 9, 6-(4-fluorophenyl)-N-(1-(4-fluorophenyl)ethyl)-4-hydroxy-1-(2-morpholinoethyl)-2-oxo-1,2-dihydro-1,8-naphthyridine-3-carboxamide] | 71 | 7 | – | < 100 | > 1000 | – |
| COc1ccc(-c2cnc3c(c2)c(O)c(C(=O)NC2CC4(CCC4)C2)c(=O)n3CCN2CCOCC2)cc1 [Compound 10, 4-hydroxy-6-(4-methoxyphenyl)-1-(2-morpholinoethyl)-2-oxo-N-(spiro[3.3]heptan-2-yl)-1,2-dihydro-1,8-naphthyridine-3-carboxamide] | 7 | 82 | > 10000 | – | – | IC50 (human CB2 receptor [2]; [3]): 7 nM |
| O=C(NC1CC2(CCC2)C1)c1c(O)c2cc(-c3ccc(Cl)cc3)cnc2n(CCN2CCOCC2)c1=O [Compound 11, 6-(4-chlorophenyl)-4-hydroxy-1-(2-morpholinoethyl)-2-oxo-N-(spiro[3.3]heptan-2-yl)-1,2-dihydro-1,8-naphthyridine-3-carboxamide] | 81 | 60 | – | – | > 1000 | IC50 (human CB2 receptor [2]): 100 to 999 nM |
| COc1ccc(-c2cnc3c(c2)c(O)c(C(=O)NC24CC(C2)C4)c(=O)n3CCN2CCOCC2)cc1 [Compound 13, N-(bicyclo[1.1.1]pentan-1-yl)-4-hydroxy-6-(4-methoxyphenyl)-1-(2-morpholinoethyl)-2-oxo-1,2-dihydro-1,8-naphthyridine-3-carboxamide] | 62 | 67 | > 10000 | – | – | IC50 (human CB2 receptor [2]; [3]): 17 nM |
| CC1CCC(NC(=O)c2c(O)c3cc(-c4ccc(C#N)cc4)cnc3n(CCN3CCOCC3)c2=O)CC1 (centres unmarked) [Compound 16, 6-(4-cyanophenyl)-4-hydroxy-N-(4-methylcyclohexyl)-1-(2-morpholinoethyl)-2-oxo-1,2-dihydro-1,8-naphthyridine-3-carboxamide] | – | 30 | > 10000 | – | – | – |
| O=C(NC1CC2(CCC2)C1)c1cc2cc(-c3ccc(OC(F)F)cn3)cnc2n(CCN2CCOCC2)c1=O [Compound 47, 6-(5-(difluoromethoxy)pyridin-2-yl)-1-(2-morpholinoethyl)-2-oxo-N-(spiro[3.3]heptan-2-yl)-1,2-dihydro-1,8-naphthyridine-3-carboxamide] | – | 48 | > 10000 | – | – | – |
| CC(NC(=O)c1cc2cc(-c3ccc(C#N)cn3)cnc2n(CCN2CCOCC2)c1=O)c1ccc(F)cc1 (centres unmarked) [Compound 58, 6-(5-cyanopyridin-2-yl)-N-(1-(4-fluorophenyl)ethyl)-1-(2-morpholinoethyl)-2-oxo-1,2-dihydro-1,8-naphthyridine-3-carboxamide] | – | 77 | > 10000 | – | – | – |
| N#Cc1ccc(C2(NC(=O)c3cc4cc(Br)cnc4n(Cc4ccc(F)cc4)c3=O)CC2)cc1 [Compound 92, 6-bromo-N-(1-(4-cyanophenyl)cyclopropyl)-1-(4-fluorobenzyl)-2-oxo-1,2-dihydro-1,8-naphthyridine-3-carboxamide] | 3.6 | 108 | – | < 100 | – | – |
| COc1ccc(-c2cnc3c(c2)c(O)c(C(=O)N[C@@H](C)c2ccc(F)cc2)c(=O)n3CCN2CCOCC2)cc1 [Compound 151, (S)—N-(1-(4-fluorophenyl)ethyl)-4-hydroxy-6-(4-methoxyphenyl)-1-(2-morpholinoethyl)-2-oxo-1,2-dihydro-1,8-naphthyridine-3-carboxamide] | – | – | – | > 1000 | > 1000 | – |
| COc1ccc(-c2cnc3c(c2)c(O)c(C(=O)NC2CCCCC2)c(=O)n3CCN2CCOCC2)cc1 [Compound 152, N-cyclohexyl-4-hydroxy-6-(4-methoxyphenyl)-1-(2-morpholinoethyl)-2-oxo-1,2-dihydro-1,8-naphthyridine-3-carboxamide] | – | – | – | – | > 1000 | IC50 (human CB2 receptor [2]): 100 to 999 nM |
| O=C(NC1CCCCC1)c1c(O)c2cc(-c3ccc(F)cc3)cnc2n(CCN2CCOCC2)c1=O [Compound 153, N-cyclohexyl-6-(4-fluorophenyl)-4-hydroxy-1-(2-morpholinoethyl)-2-oxo-1,2-dihydro-1,8-naphthyridine-3-carboxamide] | – | – | – | < 100 | > 1000 | – |
| C[C@H]1CC[C@H](NC(=O)c2c(O)c3cc(-c4ccc(OC(F)F)cc4)cnc3n(CCN3CCOCC3)c2=O)CC1 [Compound 155, 6-(4-(difluoromethoxy)phenyl)-4-hydroxy-N-((1R,4R)-4-methylcyclohexyl)-1-(2-morpholinoethyl)-2-oxo-1,2-dihydro-1,8-naphthyridine-3-carboxamide] | – | – | – | > 1000 | > 1000 | – |
| C[C@H]1CC[C@@H](NC(=O)c2c(O)c3cc(-c4ccc(OC(F)F)cc4)ccc3n(CCN3CCOCC3)c2=O)CC1 [Compound 158, 6-(4-(difluoromethoxy)phenyl)-4-hydroxy-N-((1s,4S)-4-methylcyclohexyl)-1-(2-morpholinoethyl)-2-oxo-1,2-dihydroquinoline-3-carboxamide] | – | – | – | < 100 | > 1000 | – |
| C[C@H]1CC[C@@H](NC(=O)c2c(O)c3cc(-c4ccc(F)cc4)ccc3n(CCN3CCOCC3)c2=O)CC1 [Compound 159, 6-(4-fluorophenyl)-4-hydroxy-N-((1s,4S)-4-methylcyclohexyl)-1-(2-morpholinoethyl)-2-oxo-1,2-dihydroquinoline-3-carboxamide] | – | – | – | < 100 | – | IC50 (human recombinant CB1R): 100 to 999 nM |
| COc1ccc(-c2ccc3c(c2)c(O)c(C(=O)N[C@H]2CC[C@@H](C)CC2)c(=O)n3CCN2CCOCC2)cc1 [Compound 161, 4-hydroxy-6-(4-methoxyphenyl)-N-((1s,4S)-4-methylcyclohexyl)-1-(2-morpholinoethyl)-2-oxo-1,2-dihydroquinoline-3-carboxamide] | – | – | – | < 100 | > 1000 | – |
